Test results from patent publication US9636286B2, “Antimicrobial cleanser” (Coloplast A/S, priority 2013, dated 2017).

Tests used:
[1] = tested on: reconstructed human epidermis (RhE) model; parameters: unit not given beside the values; conditions: known irritants and non-irritants given as examples of the scale; cited from earlier work
[2] = tested on: reconstructed human epidermis (RhE) model; test: In vitro irritancy, EpiDerm MTT ET50 Protocol (EPI-200), Example 1; format: cell-based
Experimental: In vitro irritancy was tested using a commercially available kit “EpiDerm MTT ET50 Protocol (EPI-200)”, available from MatTek Corporation (Ashland, Mass.). The test kit is used as a validated replacement for in vivo irritation testing otherwise known as “Draize testing”, in the EU (OECD TG439). Our method of data analysis and outcome prediction is altered slightly to determine relative differences in irritation potential between experimental neat materials tested within the same kit.
The test consists of a topical exposure of the neat experimental material to a reconstructed human epidermis (RhE) model followed by a cell viability assay. The cell viability test method is based on the enzymatic conversion of mitochondrial dehydrogenase with MTT [(3-4,5-dimethyl thiazole-2-yl) 2,5-diphenyltetrazolium bromide], resulting in a blue formazan salt, which is than extracted from the tissues and quantitated. […]
EpiDerm tissues are conditioned overnight at 37±2° C., 5% CO2, to relieve stress from the shipping process. […] After the three hour incubation in MTT, the formazan salt is extracted using 2.0 mL of isopropanol and the optical density (OD) of each sample is measured at 570 nm. Relative cell viability is calculated as a % of the mean of the negative control tissue. Dose-response curves are constructed for each sample and an ET50 value is calculated. […]

## CCCCCCCCCCCCOS(=O)(=O)[O-].[Na+] [1% SDS, SDS]
[1]
  ET50 (Irritancy Scale, example substances): 0.5-4

## Triton X-100 [1.0% Triton X-100]
[2]; from ET50 by Irritancy Scale
  Expected In vivo Irritancy Score: very mild (12-24)
[2]; neat material, exposure 1, 4 or 24 hrs, time to reduce cell viability to 50%
  ET50 Value: 12.69 h
[1]
  ET50 (Irritancy Scale, example substances): 4-12

## O=[N+]([O-])O [Nitric Acid]
[1]
  ET50 (Irritancy Scale, example substances): <0.5
